Measured values taken from US9409908B2 (priority 2012, dated 2016).
pKi: −log10 of the molar value. Counter-ions that a name gives are not always drawn. Like-named read-outs stand apart in the source and are kept apart here.

Columns and labels:
[1] = target: purified human plasma kallikrein (Homo sapiens (Human), UniProt P03952); experiment: biochemical; type: biochemical
[2] = target: purified human Factor XIa (Homo sapiens (Human), UniProt P03951); experiment: biochemical; type: biochemical; details: read-out: Factor XIa Ki
purified human Factor XIa, sequence (P03951 whole entry, looked up): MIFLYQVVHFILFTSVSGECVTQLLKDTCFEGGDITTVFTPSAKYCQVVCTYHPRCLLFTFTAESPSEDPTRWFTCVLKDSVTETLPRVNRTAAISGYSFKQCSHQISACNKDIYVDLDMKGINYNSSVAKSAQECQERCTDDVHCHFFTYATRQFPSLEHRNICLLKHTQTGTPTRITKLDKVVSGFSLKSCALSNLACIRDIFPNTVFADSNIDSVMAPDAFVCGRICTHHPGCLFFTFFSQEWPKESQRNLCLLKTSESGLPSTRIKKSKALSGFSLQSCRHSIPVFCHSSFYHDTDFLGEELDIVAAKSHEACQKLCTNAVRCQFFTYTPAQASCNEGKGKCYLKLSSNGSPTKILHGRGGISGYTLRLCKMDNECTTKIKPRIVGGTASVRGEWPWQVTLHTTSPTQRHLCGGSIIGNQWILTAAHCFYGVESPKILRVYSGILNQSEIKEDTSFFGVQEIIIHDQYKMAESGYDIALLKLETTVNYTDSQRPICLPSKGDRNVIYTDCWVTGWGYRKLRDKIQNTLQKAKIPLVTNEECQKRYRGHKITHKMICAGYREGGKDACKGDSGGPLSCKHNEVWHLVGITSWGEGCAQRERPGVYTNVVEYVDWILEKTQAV
purified human Factor XIa, sequence (P03951 whole entry partner, looked up): as the sequence (P03951 whole entry, looked up) above

purified human plasma kallikrein, sequence (P03952 whole entry, looked up): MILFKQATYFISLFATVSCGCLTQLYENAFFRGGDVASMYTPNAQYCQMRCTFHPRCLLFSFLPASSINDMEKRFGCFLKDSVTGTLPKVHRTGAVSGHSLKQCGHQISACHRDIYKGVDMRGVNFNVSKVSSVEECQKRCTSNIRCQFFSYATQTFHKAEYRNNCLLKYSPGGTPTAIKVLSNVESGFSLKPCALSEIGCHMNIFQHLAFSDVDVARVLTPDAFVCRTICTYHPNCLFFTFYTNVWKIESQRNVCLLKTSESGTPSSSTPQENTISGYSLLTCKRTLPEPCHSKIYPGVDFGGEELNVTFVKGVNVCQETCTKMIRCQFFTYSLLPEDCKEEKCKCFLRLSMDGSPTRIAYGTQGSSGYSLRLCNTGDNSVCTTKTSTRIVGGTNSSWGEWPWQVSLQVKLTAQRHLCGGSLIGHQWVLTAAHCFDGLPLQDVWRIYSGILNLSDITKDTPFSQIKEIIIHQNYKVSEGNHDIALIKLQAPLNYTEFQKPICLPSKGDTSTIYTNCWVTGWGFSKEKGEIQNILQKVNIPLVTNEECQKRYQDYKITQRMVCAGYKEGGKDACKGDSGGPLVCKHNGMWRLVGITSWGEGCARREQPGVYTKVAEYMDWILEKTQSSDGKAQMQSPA
purified human plasma kallikrein, sequence (P03952 whole entry partner, looked up): as the sequence (P03952 whole entry, looked up) above

SMILES	pKi ([1]; read-out: Plasma Kallikrein Ki)	pKi [2]	pKi ([1]; Plasma Kallikrein Ki)
COC(=O)Nc1ccc2c(c1)NC(=O)[C@H](C)CCC[C@H](N1CC(C)C(c3c(F)ccc(Cl)c3F)=CC1=O)c1cc-2ccn1 (stereo partly drawn) [Example 73, Methyl N-[(10R,14S)-14-[4-(3-chloro-2,6-difluorophenyl)-3-methyl-6-oxo-1,2,3,6-tetrahydropyridin-1-yl]-10-methyl-9-oxo-8,16-diazatricyclo[13.3.1.0^2,7]nonadeca-1(19),2(7),3,5,15,17-hexaen-5-yl]carbamate, TFA salt]	8.22	9.06	–
COC(=O)Nc1ccc2c(c1)NC(=O)[C@H](C)CCC[C@H](n1ncc(-c3c(Br)ccc(Cl)c3F)cc1=O)c1cc-2ccn1 [Example 78, Methyl N-[(10R,14S)-14-[4-(6-bromo-3-chloro-2-fluorophenyl)-6-oxo-1,6-dihydropyridazin-1-yl]-10-methyl-9-oxo-8,16-diazatricyclo[13.3.1.0^2,7]nonadeca-1(19),2(7),3,5,15,17-hexaen-5-yl]carbamate, TFA salt]	8.30	9.01	–
C[C@@H]1CCC[C@H](N2CCC(c3c(F)ccc(Cl)c3F)=CC2=O)c2cc(ccn2)-c2c(ccc(F)c2F)NC1=O [Example 203, (10R,14S)-14-[4-(3-chloro-2,6-difluorophenyl)-6-oxo-1,2,3,6-tetrahydropyridin-1-yl]-3,4-difluoro-10-methyl-8,16-diazatricyclo[13.3.1.0^2,7]nonadeca-1(19),2(7),3,5,15,17-hexaen-9-one, TFA salt]	7.36	7.71	–
C[C@@H]1CCC[C@H](n2ccc(-c3c(F)ccc(Cl)c3F)cc2=O)c2cc(ccn2)-c2c(F)cccc2NC1=O [Example 200, (10R,14S)-14-[4-(3-chloro-2,6-difluorophenyl)-2-oxo-1,2-dihydropyridin-1-yl]-3-fluoro-10-methyl-8,16-diazatricyclo[13.3.1.0^2,7]nonadeca-1(19),2(7),3,5,15,17-hexaen-9-one, TFA salt]	7.54	7.74	–
COC(=O)Nc1ccc2c(c1)NC(=O)[C@H](C)C(=O)CC[C@H](N1CCC(c3c(F)ccc(Cl)c3F)=CC1=O)c1cc-2ccn1 [Example 136, Methyl N-[(10R,14S)-14-[4-(3-chloro-2,6-difluorophenyl)-6-oxo-1,2,3,6-tetrahydropyridin-1-yl]-10-methyl-9,11-dioxo-8,16-diazatricyclo[13.3.1.0^2,7]nonadeca-1(19),2(7),3,5,15,17-hexaen-5-yl]carbamate]	6.93	7.34	–
COC(=O)Nc1ccc2c(c1)NC(=O)[C@H](C)CCC[C@H](N1CC(C)C(c3c(F)ccc(Cl)c3F)=CC1=O)c1cc-2ccn1 (single isomer, unassigned; isomer 2) [Example 178]	–	–	8.25
COC(=O)Nc1ccc2c(c1)NC(=O)[C@H](C)CCC[C@H](N1CCC(c3cccc(Cl)c3F)=CC1=O)c1nc-2c(C)[nH]1 [Example 151, Methyl N-[(10R,14S)-14-[4-(3-chloro-2-fluorophenyl)-6-oxo-1,2,3,6-tetrahydropyridin-1-yl]-10,17-dimethyl-9-oxo-8,16,18-triazatricyclo[13.2.1.0^2,7]octadeca-1(17),2,4,6,15(18)-pentaen-5-yl]carbamate]	7.62	–	–
C[C@@H]1CCC[C@H](N2CCC(c3c(F)ccc(Cl)c3F)=CC2=O)c2cc(ccn2)-c2cc(Cl)c(O)c(Cl)c2NC1=O [Example 20, (10R,14S)-4,6-Dichloro-14-[4-(3-chloro-2,6-difluorophenyl)-6-oxo-1,2,3,6-tetrahydropyridin-1-yl]-5-hydroxy-10-methyl-8,16-diazatricyclo[13.3.1.0^2,7]nonadeca-1(19),2,4,6,15,17-hexaen-9-one, TFA salt]	6.01	–	–
CC1CCC[C@H](N2CCC(c3c(F)ccc(Cl)c3F)=CC2=O)c2cc(ccn2)-c2ccc(C#N)cc2NC1=O (stereo partly drawn) [Example 109, (14S)-14-[4-(3-Chloro-2,6-difluorophenyl)-6-oxo-1,2,3,6-tetrahydropyridin-1-yl]-10-methyl-9-oxo-8,16-diazatricyclo[13.3.1.0^2,7]nonadeca-1(18),2,4,6,15(19),16-hexaene-5-carbonitrile, TFA salt]	7.40	–	–
C[C@@H]1CCC[C@H](N2CCC(c3c(F)ccc(Cl)c3F)=CC2=O)c2cc(ccn2)-c2ccc(NC3O[C@H](CO)[C@@H](O)[C@@H](O)[C@H]3NC(=O)OC(C)(C)C)cc2NC1=O (stereo partly drawn) [Example 132, tert-butyl N-[(3R,4S,5S,6R)-2-{[(10R,14S)-14-[4-(3-chloro-2,6-difluorophenyl)-6-oxo-1,2,3,6-tetrahydropyridin-1-yl]-10-methyl-9-oxo-8,16-diazatricyclo[13.3.1.0^2,7]nonadeca-1(19),2,4,6,15,17-hexaen-5-yl]amino}-4,5-dihydroxy-6-(hydroxymethyl)oxan-3-yl]carbamate]	7.76	–	–
COC(=O)Nc1ccc2c(c1)NC(=O)[C@H](C)CCC[C@H](N1CCC(c3ccnc(Cl)c3)=CC1=O)c1cc-2ccn1 [Example 156, Methyl N-[(10R,14S)-14-[4-(2-chloropyridin-4-yl)-6-oxo-1,2,3,6-tetrahydropyridin-1-yl]-10-methyl-9-oxo-8,16-diazatricyclo[13.3.1.0^2,7]nonadeca-1(19),2,4,6,15,17-hexaen-5-yl]carbamate, 2 TFA salt]	–	< 6.35	–
CC1CCC[C@H](N2CCC(c3cccc(Cl)c3F)=CC2=O)c2cc(ccn2)-c2ccc(C(N)=O)cc2NC1=O (stereo partly drawn) [Example 35, (14S)-14-[4-(3-Chloro-2-fluorophenyl)-6-oxo-1,2,3,6-tetrahydropyridin-1-yl]-10-methyl-9-oxo-8,16-diazatricyclo[13.3.1.0^2,7]nonadeca-1(19),2,4,6,15,17-hexaene-5-carboxamide, TFA salt]	–	6.98	–
C[C@@H]1CCC[C@H](N2CCC(c3c(F)ccc(Cl)c3F)=CC2=O)c2cc(ccn2)-c2ccc(NC(=O)OCCOC(C)(C)C)cc2NC1=O [Example 53, 2-(tert-Butoxy)ethyl N-[(10R,14S)-14-[4-(3-chloro-2,6-difluorophenyl)-6-oxo-1,2,3,6-tetrahydropyridin-1-yl]-10-methyl-9-oxo-8,16-diazatricyclo[13.3.1.0^2,7]nonadeca-1(19),2,4,6,15,17-hexaen-5-yl]carbamate, TFA salt]	–	10.10	–
C[C@@H]1CCC[C@H](N2CCC(c3c(F)ccc(Cl)c3F)=CC2=O)c2cc(ccn2)-c2ccc(F)cc2NC1=O [Example 14, (10R,14S)-14-[4-(3-Chloro-2,6-difluorophenyl)-6-oxo-1,2,3,6-tetrahydropyridin-1-yl]-5-fluoro-10-methyl-8,16-diazatricyclo[13.3.1.0^2,7]nonadeca-1(19),2,4,6,15,17-hexaen-9-one, TFA salt]	–	7.46	–
CC(=O)c1ccc(Cl)c(F)c1C1=CC(=O)N([C@H]2CCCC(C)C(=O)Nc3cc(C(N)=O)ccc3-c3ccnc2c3)CC1 (stereo partly drawn) [Example 34, (14S)-14-[4-(6-Acetyl-3-chloro-2-fluorophenyl)-6-oxo-1,2,3,6-tetrahydropyridin-1-yl]-10-methyl-9-oxo-8,16-diazatricyclo[13.3.1.0^2,7]nonadeca-1(19),2,4,6,15,17-hexaene-5-carboxamide, TFA salt]	–	8.38	–
COC(=O)Nc1ccc2c(c1)NC(=O)[C@H](C)CCC[C@H](N1CCC(c3cncn3C)=CC1=O)c1cc-2ccn1 [Example 97, Methyl N-[(10R,14S)-10-methyl-14-[4-(1-methyl-1H-imidazol-5-yl)-6-oxo-1,2,3,6-tetrahydropyridin-1-yl]-9-oxo-8,16-diazatricyclo[13.3.1.0^2,7]nonadeca-1(19),2,4,6,15,17-hexaen-5-yl]carbamate, 2 TFA salt]	–	< 6.39	–
